Reference: article PMC11401107 (Heliyon, 2024)
Values belong to the compound of their own block, whether it stands above or below them.

Columns and labels:
soybean 15-LOX = biological target: T1, soybean 15-LOX (Glycine max, UniProt P08170); test: 15-LOX inhibition assay; assay type: biochemical; details: for 15-LOX assay Inhibition (%) at 0.25 mM / 15-LOX assay IC50 (μM) / IC50: Mean ± SEM, n = 3; for IC50: read-out: 15-LOX assay IC50; for inhibition at 250 µM: read-out: 15-LOX assay Inhibition (%) at 0.25 mM
T1 sequence (P08170 1-839): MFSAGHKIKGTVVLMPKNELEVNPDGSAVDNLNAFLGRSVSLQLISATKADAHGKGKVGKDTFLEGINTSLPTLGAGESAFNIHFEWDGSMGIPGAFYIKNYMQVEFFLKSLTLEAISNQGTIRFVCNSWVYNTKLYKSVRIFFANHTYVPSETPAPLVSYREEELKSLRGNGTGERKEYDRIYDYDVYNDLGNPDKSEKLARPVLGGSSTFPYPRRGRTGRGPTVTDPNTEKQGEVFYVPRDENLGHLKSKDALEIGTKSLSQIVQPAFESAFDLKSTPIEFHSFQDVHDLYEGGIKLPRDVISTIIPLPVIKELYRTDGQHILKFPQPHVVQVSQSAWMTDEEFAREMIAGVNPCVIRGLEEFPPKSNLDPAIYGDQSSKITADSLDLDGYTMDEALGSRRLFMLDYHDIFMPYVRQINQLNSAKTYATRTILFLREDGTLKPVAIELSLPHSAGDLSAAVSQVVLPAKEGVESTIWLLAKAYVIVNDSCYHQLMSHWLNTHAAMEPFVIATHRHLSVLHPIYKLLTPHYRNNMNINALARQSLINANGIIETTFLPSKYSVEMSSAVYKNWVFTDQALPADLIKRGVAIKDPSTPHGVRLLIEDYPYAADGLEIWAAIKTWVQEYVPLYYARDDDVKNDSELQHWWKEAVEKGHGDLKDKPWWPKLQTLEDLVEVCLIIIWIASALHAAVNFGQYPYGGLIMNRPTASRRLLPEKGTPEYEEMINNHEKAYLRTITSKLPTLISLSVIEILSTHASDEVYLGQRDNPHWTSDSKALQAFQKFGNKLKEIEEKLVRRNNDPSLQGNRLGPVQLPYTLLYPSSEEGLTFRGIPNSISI

[1] = tested on: human blood mononuclear cells (MNCs); test: Cell viability assay; assay type: cell-based; details: MNCs; 0.25 mM; Mean ± SEM, n = 3
LOX = LOX inhibition; cited from earlier work
Cell viability assay = assay type: cell-based, human; details: human, human blood mononuclear cells (MNCs), pH 7.4

SMILES: O=c1cc(-c2ccccc2)oc2cc(O)c(O)c(O)c12 [Baicalein, reference compound]
inhibition at 250 µM (soybean 15-LOX): 93.8 ± 1.27%

SMILES: Cc1ccc(NN=C2C(=N)N(c3ccc(S(N)(=O)=O)cc3)N=C2N)cc1 [ii, 4-{3-amino-4-[(4-methylphenyl)-hydrazono]-5-imino-4,5-dihydropyrazol-1-yl}-benzenesulfonamide]
IC50 (LOX): 1.92 ± 0.01 µM

SMILES: O=c1c(O)c(-c2ccc(O)c(O)c2)oc2cc(O)cc(O)c12 [Quercetin, reference compound]
inhibition at 250 µM (soybean 15-LOX): 96.6 ± 1.24%

SMILES: COc1ccc(-c2csc3nc(-c4ccccc4)c(NC(C)(C)CC(C)(C)C)n23)cc1 [i, 3-(4-methoxyphenyl)-N-(2,4,4-trimethylpentane-2-yl)-6-phenylimidazo [2,1-b]thiazol-5-amine]
IC50 (LOX): 11.5 ± 0.78 µM

SMILES: COc1cc(/C=C/C(=O)CC(=O)/C=C/c2ccc(O)c(OC)c2)ccc1O [Curcumin, reference compound]
viability at 2 h, 0.25 mM (Cell viability assay): 71.8 ± 2.8%

SMILES: O=P1(N(CCCl)CCCl)NCCCO1 (centres unmarked) [Cyclophosphamide, reference compound]
viability at 2 h, 0.25 mM (Cell viability assay): 58.5 ± 2.6%

Further lines, with some results ahead:

15-LOX assay Inhibition (%) at 0.25 mM (soybean 15-LOX): 56.49 ± 1.59%
15-LOX assay IC50 (μM) (soybean 15-LOX): inactive
IC50 (soybean 15-LOX): > 200 µM
SMILES: CCn1c(SC(C)C(=O)Nc2c(C)cccc2C)nnc1C1CCN(C(=O)Nc2ccccc2)CC1 (centres unmarked) [7k, 2-(5-(1-Phenylcarbamoylpiperdine-4-yl)-4-ethyl-4H-1,2,4-triazol-3-ylthio)-N-2,6-dimethylphenylpropanamide]
MTT assay Cell viability (%) at 0.25 mM [1]: 75.67 ± 2.8%

15-LOX assay Inhibition (%) at 0.25 mM (soybean 15-LOX): 57.37 ± 1.46%
15-LOX assay IC50 (μM) (soybean 15-LOX): inactive
IC50 (soybean 15-LOX): > 200 µM
SMILES: CCn1c(SC(C)C(=O)Nc2cc(C)cc(C)c2)nnc1C1CCN(C(=O)Nc2ccccc2)CC1 (centres unmarked) [7m, 2-(5-(1-Phenylcarbamoylpiperdine-4-yl)-4-ethyl-4H-1,2,4-triazol-3-ylthio)-N-3,5-dimethylphenylpropanamide]
MTT assay Cell viability (%) at 0.25 mM [1]: 78.24 ± 2.7%
